Experiments:
[1] = Tetrazine-induced release of bead-bound radioactivity from streptavidin beads loaded with 125I-Rtx-TCO-biotin; details: beads with 21 μg ^125I-Rtx-TCO-biotin/mg; 1.5×10^3 eqs tetrazine; 1 hour at room temperature; gamma counting
Procedure: The bead suspension containing 21 μg ^125I-Rtx-TCO-biotin/mg beads (1 mL in PBS) was divided in two aliquots and reacted with a large excess of 3,6-dimethyl-1,2,4,5-tetrazine (8, 1.5×10^3 eqs with respect to Rtx) in DMSO (5 μL) or with DMSO alone (control) and incubated for 1 hour at room temperature on a roller bench. […] SDS-PAGE confirmed that the activity in the supernatant was due to the release of ^125I-Rtx from the beads (FIG. 4), thus confirming cleavage of the Rtx-TCO-biotin linker upon reaction with the 3,6-dimethyl-1,2,4,5-tetrazine.

[2] = Tetrazine-induced doxorubicin release from Axial-TCO-1-Doxorubicin in PBS/MeCN (LCMS); details: 10 equiv. tetrazine; 25% MeCN in PBS; 37° C.; LCMS at 4 h (n = 3)
Procedure: PBS/MeCN (1 mL, 3/1), preheated at 37° C. and TCO-2-doxorubicin (10 μL of a 2.5 mM solution in DMSO, 1 eq.) were added to a preheated injection vial. Tetrazine (10 μL of a 25 mM solution in DMSO, 10 eq.) was added and the vial was vortexed. After incubation for 1 hour at 37° C., the vial was placed in LC-MS autosampler at 10° C. LC-MS analysis was performed using a 5% to 100% H2O/MeCN gradient over 11 minutes with a C18 reverse-phase column at 35° C. A control sample containing only TCO-2-doxorubicin (1 eq), as well as a sample containing only doxorubicin (1 eq.), was analyzed under the same conditions. All tetrazine containing samples were measured twice and the doxorubicin control sample was run after every three other samples during an overnight program. […] The calculated percentage of release was corrected when it was observed that the TCO-2-doxorubicin was not fully converted to inv-DA adduct(s). This was done by quantification of remaining dox-TCO, but full conversion was almost always observed. Peak areas (used for doxorubin quantification) were determined at λ=470-500 nm where characteristic doxorubicin absorption takes place and peak integration was done by hand.
(§1) In a similar fashion as Example 3, the release of doxorubicin from TCO-1-doxorubucin as induced by tetrazines 1, 8, 9 in PBS/ACN and in serum was measured.

[3] = Tetrazine-induced doxorubicin release from Axial-TCO-1-Doxorubicin in serum; parameters: species or system mouse; details: 10 equiv. tetrazine; 50% serum; 37° C.; LCMS at 4 h (n = 3)
Procedure: as §1
Serum experiments were conducted as follows:
TCO-1-doxorubucin (6.25×10^−8 mol) was dissolved in DMSO (0.050 mL), and PBS (0.475 mL) was added slowly in aliquots of 0.010 mL, followed by mouse serum (0.475 mL). A portion of this mixture (0.200 mL) was equilibrated at 37° C., and a solution of tetrazine (1.25×10^−7 mol) in DMSO (0.005 mL) was added, and the solution was thoroughly mixed and incubated at 37° C. in the dark for 4 h. Subsequently, cold MeCN (0.200 mL) was added, followed by centrifugation at 13400 rpm for 5 min. The supernatant was used for further analysis by HPLCMS/PDA analysis to determine the release of doxorubicin.

Cc1nnc(C)nn1 [tetrazine 8, 3,6-dimethyl-1,2,4,5-tetrazine]
release of the bead-bound radioactivity [1]: 37%
Doxorubicin release (%) from Axial-TCO-1-Doxorubicin, PBS/MeCN (3/1) [2]: 79 ± 3%
Doxorubicin release (%) from Axial-TCO-1-Doxorubicin, Serum [3]: 75 ± 4%

Source: patent publication US10927139B2, “Chemically cleavable group” (Tagworks Pharmaceuticals B.V., priority 2012, dated 2021)
